Reference: US20110275703A1, “SUBSTITUTED SPIROKETAL DERIVATIVES AND USE THEREOF AS THERAPEUTIC DRUG FOR DIABETES” (CHUGAI SEIYAKU KABUSHIKI KAISHA, priority 2007, published 2011)
Like-named read-outs stand apart in the source and are kept apart here.

Experiments:
[1] = target: T1, human SGLT2 (Homo sapiens, UniProt P31639); test: Inhibitory activity against methyl-α-D-glucopyranoside uptake, CHO cells stably expressing human SGLT2; assay type: cell-based; details: for hSGLT2 selectivity: matches hSGLT1 IC50 / hSGLT2 IC50 (formula not stated)
T1 construct: expressed in transfected cells; host or cells: CHO-K1
T1 sequence (P31639 1-672): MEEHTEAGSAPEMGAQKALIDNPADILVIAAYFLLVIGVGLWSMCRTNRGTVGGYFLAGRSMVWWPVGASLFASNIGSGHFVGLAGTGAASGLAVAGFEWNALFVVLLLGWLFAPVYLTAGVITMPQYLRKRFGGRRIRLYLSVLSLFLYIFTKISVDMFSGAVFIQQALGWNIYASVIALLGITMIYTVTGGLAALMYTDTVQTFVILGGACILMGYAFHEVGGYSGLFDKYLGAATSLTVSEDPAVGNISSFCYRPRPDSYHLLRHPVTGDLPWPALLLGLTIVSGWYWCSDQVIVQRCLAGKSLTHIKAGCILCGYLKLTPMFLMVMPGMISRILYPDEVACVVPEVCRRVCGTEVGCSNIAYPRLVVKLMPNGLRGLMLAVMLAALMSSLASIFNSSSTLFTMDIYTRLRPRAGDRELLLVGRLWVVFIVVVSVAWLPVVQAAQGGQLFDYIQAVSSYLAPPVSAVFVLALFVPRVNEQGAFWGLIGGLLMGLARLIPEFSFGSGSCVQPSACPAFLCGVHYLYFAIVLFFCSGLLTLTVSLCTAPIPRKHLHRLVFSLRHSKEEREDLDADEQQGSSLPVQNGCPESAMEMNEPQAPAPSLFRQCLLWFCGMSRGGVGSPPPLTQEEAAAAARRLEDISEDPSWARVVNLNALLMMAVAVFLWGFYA
Summary of the method: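 CHO-K1 cells stably expressing human SGLT2 were pre-incubated in sodium-free choline buffer (pH 7.4), then exposed 45 min at 37°C to test compound in sodium buffer containing 1 mM [14C]methyl-α-D-glucopyranoside. Sodium-free buffer gave baseline uptake. After washing, cells were lysed with NaOH/SDS.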

[2] = system: db/db mice; test: Study for glucose lowering effect in db/db mouse; assay type: in vivo; details: oral, 0.3 mg/kg, relative to control group; for inhibition in vivo at 0.3 mg/kg: Mus musculus, 6 hours, Table 3-2, read-out: Percent reduction of blood glucose (%) 6 hours after administration; for Percent reduction of blood glucose (%) 24 hours after administration: Table 3-2
Summary of the method: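 Male db/db mice, 9–11 weeks old, were grouped (n=5) by body weight/blood glucose and dosed orally by gavage with compound in 0.5% CMC at 0.3 mg/10 mL or 3 mg/10 mL (10 mL/kg); controls got vehicle. Tail blood glucose was measured by hexokinase method before and serially after dosing, expressed as % reduction versus control.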

[3] = Table 2-2, read-out: hhSGLT2 IC50 value
[4] = inhibition of SGLT2, Table 2-1, read-out: IC50 value

SMILES	IC50 [1, 3] [nM]	IC50 [1, 4] [nM]	hSGLT2 selectivity [1]	inhibition in vivo at 0.3 mg/kg [2] [%]	Percent reduction of blood glucose (%) 24 hours after administration [2] [%]
Cc1cc2c(cc1Cc1ccc(C(C)C)cc1)[C@]1(OC2)O[C@H](CO)[C@@H](O)[C@H](O)[C@H]1O [Example 21, (1S,3′R,4′S,5′S,6′R)-3′,4′,5′,6′-tetrahydro-6′-(hydroxymethyl)-6-[(4-isopropylphenyl)methyl]-5-methyl-spiro[isobenzofuran-1(3H),2′-[2H]pyran]-3′,4′,5′-triol]	2	2.1	341	51	33
OC[C@H]1O[C@]2(OCc3cc(Cl)c(Cc4ccc5ccccc5c4)cc32)[C@H](O)[C@@H](O)[C@@H]1O [Example 7, (1S,3′R,4′S,5′S,6′R)-5-chloro-3′,4′,5′,6′-tetrahydro-6′-(hydroxymethyl)-6-(2-naphthylmethyl)-spiro[isobenzofuran-1(3H),2′-[2H]pyran]-3′,4′,5′-triol]	1.7	1.7	224	54	42
CCCc1ccc(Cc2cc3c(cc2Cl)CO[C@]32O[C@H](CO)[C@@H](O)[C@H](O)[C@H]2O)cc1 [Example 9, (1S,3′R,4′S,5′S,6′R)-5-chloro-3′,4′,5′,6′-tetrahydro-6′-(hydroxymethyl)-6-[(4-propylphenyl)methyl]-spiro[isobenzofuran-1(3H),2′-[2H]pyran]-3′,4′,5′-triol]	2.3	2.3	590	48	28

Further lines, with some results ahead:

IC50 [1, 3] [nM]	IC50 [1, 4] [nM]	hSGLT2 selectivity [1]	SMILES	inhibition in vivo at 0.3 mg/kg [2] [%]	Percent reduction of blood glucose (%) 24 hours after administration [2] [%]
1.7	1.7	596	CC(C)c1ccc(Cc2cc3c(cc2Cl)CO[C@]32O[C@H](CO)[C@@H](O)[C@H](O)[C@H]2O)cc1 [Example 15, (1S,3′R,4′S,5′S,6′R)-5-chloro-3′,4′,5′,6′-tetrahydro-6′-(hydroxymethyl)-6-[(4-isopropylphenyl)methyl]-spiro[isobenzofuran-1(3H),2′-[2H]pyran]-3′,4′,5′-triol]	50	27
1.5	1.5	283	CCOc1ccc(Cc2cc3c(cc2Cl)CO[C@]32O[C@H](CO)[C@@H](O)[C@H](O)[C@H]2O)cc1 [Example 5, (1S,3′R,4′S,5′S,6′R)-5-chloro-6-[(4-ethoxyphenyl)methyl]-3′,4′,5′,6′-tetrahydro-6′-(hydroxymethyl)-spiro[isobenzofuran-1(3H),2′-[2H]pyran]-3′,4′,5′-triol]	52	25
1.6		83	CCc1ccc(Cc2cc3c(cc2C)CO[C@]32O[C@H](CO)[C@@H](O)[C@H](O)[C@H]2O)cc1 [Comparative Compound 1, 1,1-anhydro-1-C-[5-(4-ethylphenyl)methyl-2-(hydroxymethyl)-4-methylphenyl]-β-glucopyranose, reference compound]		
1.3	1.3	155	CCc1ccc(Cc2cc3c(cc2Cl)CO[C@]32O[C@H](CO)[C@@H](O)[C@H](O)[C@H]2O)cc1 [Example 1, (1S,3′R,4′S,5′S,6′R)-5-chloro-6-[(4-ethylphenyl)methyl]-3′,4′,5′,6′-tetrahydro-6′-(hydroxymethyl)-spiro[isobenzofuran-1(3H),2′-[2H]pyran]-3′,4′,5′-triol]	42	32
1.1	1.1	323	OC[C@H]1O[C@]2(OCc3cc(Cl)c(Cc4ccc(CCF)cc4)cc32)[C@H](O)[C@@H](O)[C@@H]1O [Example 8, (1S,3′R,4′S,5′S,6′R)-5-chloro-6-[(4-(2-fluoroethyl)phenyl)methyl]-3′,4′,5′,6′-tetrahydro-6′-(hydroxymethyl)-spiro[isobenzofuran-1(3H),2′-[2H]pyran]-3′,4′,5′-triol]	48	27
